Assay: GHS categories as the set defines them, by LD50: 1 up to 5, 2 up to 50, 3 up to 300, 4 up to 2000, 5 above 2000 mg/kg
Details: rat; in vivo; po

SMILES	GHS category
CC(C)(C)c1ccc2oc(-c3ccc(-c4nc5cc(C(C)(C)C)ccc5o4)s3)nc2c1	5
CCOC(=O)N(C)C1CCCN(c2nc(N)c3cc(OC)c(OC)cc3n2)C1 (stereo not drawn)	4
CCN(CC)c1ccc(N)cc1	3
CC(=O)[C@@]1(O)CC[C@H]2[C@@H]3CCC4=CC(=O)CC[C@]4(C)C3=CC[C@@]21C	5
CC(C)(O/N=C(\C(=O)N[C@@H]1C(=O)N2C(C(=O)[O-])=C(C[n+]3ccccc3)CS[C@H]12)c1csc(N)n1)C(=O)O	5
O=C(O)CNC(c1ccccc1)c1ccc(Cl)c(Cl)c1 (stereo not drawn)	4
CC(=O)C(N=Nc1cccc(OCCOc2ccccc2N=NC(C(C)=O)C(=O)Nc2ccc3[nH]c(=O)[nH]c3c2)c1)C(=O)Nc1ccc2[nH]c(=O)[nH]c2c1 (stereo not drawn)	5
CCCCCC(=O)OCCCC	5
COC(=O)c1cc(F)ccc1[N+](=O)[O-]	5
CC(=O)N1CCSC1C(=O)Oc1c(C)ncc(CO)c1CO (stereo not drawn)	5
CCC(C(=O)NC(=O)NC(C)=O)c1ccccc1 (stereo not drawn)	5
CCCCCC(=Cc1ccccc1)C(OC)OC	5
CCCCCCCCCCCCCCCCCC(=O)NCCCCC(NC(=O)CCC(NC(=O)C(C)NC(=O)C(C)OC1C(O)C(CO)OC(O)C1NC(C)=O)C(N)=O)C(=O)O (stereo not drawn)	4
CC(C)Oc1ccc2c(c1)N(CCC1CCCCN1C)c1ccccc1S2 (stereo not drawn)	5
Nc1ccc(C(=O)c2ccccc2)cc1O	5
CCCCCCOC(=O)C(C)C	5
CC(C)=CCN(CC=C(C)C)CCC(C#N)(Cc1cccc2ccccc12)C(C)C (stereo not drawn)	4
Cc1ccc(S(=O)(=O)NC(=O)NN2CCCCCC2)cc1	5
CCc1ccccc1OP(=O)(Oc1ccccc1CC)Oc1ccccc1CC	5
CC(=O)OC1CCC2CCCCC2C1 (stereo not drawn)	5
CC(C)(CO)C(O)C(=O)NCCC(=O)NCCSSCCNC(=O)CCNC(=O)C(O)C(C)(C)CO (stereo not drawn)	5

SMILES	GHS category
CCC(C)(C)c1ccccc1	5
CC(C)Br	5
CNC(=C[N+](=O)[O-])NCCSCc1ccc(CN(C)C)o1	5
COc1cccc(N(C)C(=S)Oc2cccc(C(C)(C)C)c2)n1	5
O=C(CCCN1CCC2(CC1)C(=O)NCN2c1ccccc1)c1ccc(F)cc1	4
O=C(O)c1ccccc1Nc1ccc(O)c(C(F)(F)F)c1	5
CC(C)c1nc2ccccc2c(=O)n1-c1ccncc1	4
C=C(c1ccccc1)c1ccccc1	5
C=C1C2CCC(C2)C1(C)C (stereo not drawn)	5
O=C(O)Cc1ccc(OCC(O)CO)c(Cl)c1 (stereo not drawn)	5
COC(=O)c1ccc(OC)cc1	5
CCc1cc(C)cc(CC)c1-c1c(OC(=O)C(C)(C)C)n2n(c1=O)CCOCC2	5
CN1C(=O)COc2cc(C(=O)C=Cc3ccccc3)ccc21	5
Clc1cc(Cl)ncn1	3
CCCCc1c(Cc2ccc(-c3ccccc3-c3nn[nH]n3)cc2)c(=O)nc2nc[nH]n12	4
CCOC(=O)c1ccnc(C(=O)OCC)c1	5
CC(CCc1ccccc1)NC(C)C(O)c1ccc(O)cc1 (stereo not drawn)	5
C=CC(C)(CCC=C(C)C)OC (stereo not drawn)	5
CC(C)(C)OOC(C)(C)CCC(C)(C)OOC(C)(C)C	5
CCO[Si](C)(CCCN)OCC	5
C=COC(=O)C1=C(C)N[C@@](C)(c2ccc(N3CCN(C(c4ccccc4)c4ccccc4)CC3)cc2)C(C(=O)OC)C1c1cccc([N+](=O)[O-])c1 (stereo partly drawn)	4

SMILES	GHS category
O=C(O)[C@H](CO)Nc1ccc([N+](=O)[O-])cc1	5
CCOC(=O)C1=C(C)NC(C)=C(C(=O)OCCN2C(=O)c3ccccc3S2(=O)=O)C1C (stereo not drawn)	5
CC(C)(C)c1cc(CCC(=O)NCCCCCCNC(=O)CCc2cc(C(C)(C)C)c(O)c(C(C)(C)C)c2)cc(C(C)(C)C)c1O	5
CC(CO)CCCC1CCCCC1 (stereo not drawn)	5
CNS(=O)(=O)Cc1ccc2[nH]cc(CCN(C)C)c2c1	5
NC(=O)c1cn(CCO)nc1[N+](=O)[O-]	5
NC(N)=N[C@@H](CS)C(=O)O	5
Cc1cc(C(C)(C)C)c(OP2COC3(COP(Oc4c(C(C)(C)C)cc(C)cc4C(C)(C)C)OC3)OC2)c(C(C)(C)C)c1 (stereo not drawn)	5
CC(C)(C)c1cc(CCC(=O)OCC(COC(=O)CCc2cc(C(C)(C)C)c(O)c(C(C)(C)C)c2)(COC(=O)CCc2cc(C(C)(C)C)c(O)c(C(C)(C)C)c2)COC(=O)CCc2cc(C(C)(C)C)c(O)c(C(C)(C)C)c2)cc(C(C)(C)C)c1O	5
CCSC(=O)/C=C(C)/C=C/CC(C)CCCC(C)(C)OC (stereo not drawn)	5
NCCC(=O)NC(Cc1cnc[nH]1)C(=O)O (stereo not drawn)	5
CCCN(CCC)c1c([N+](=O)[O-])cc(C(C)C)cc1[N+](=O)[O-]	5
COC(=O)C(C)CCC(=O)N(C)C (stereo not drawn)	5
Cc1c(C#N)sc(N)c1C#N	4
O=C1CCCCCN1C(=O)Nc1ccc(Cc2ccc(NC(=O)N3CCCCCC3=O)cc2)cc1	5
CCCC1OC(Cn2cncn2)(c2cc3ccccc3o2)OCC1CC (stereo not drawn)	4
O=C1/C(=C2\Nc3ccccc3C2=O)Nc2ccccc21	5
CC(=O)OCC(=O)C1(O)C(O)CC2C3CCC4=CC(=O)C=CC4(C)C3=CCC21C (stereo not drawn)	5
CCCCC(C)OP(=S)(OC)OC (stereo not drawn)	4
CC1(C(O)CO)OC(c2ccc(Cl)cc2)OC2COC(c3ccc(Cl)cc3)OC21 (stereo not drawn)	5
CCOc1ccc(NC(=O)OC(C)C)cc1OCC	5

SMILES	GHS category
C#CCN(C(C)=O)C(=O)Oc1cccc2c1OC(C)(C)O2	4
COc1ccccc1-c1nc(C)c(C(N)=O)s1	5
CCC(c1ccc(O)cc1)C(C#N)c1ccc(O)cc1 (stereo not drawn)	5
CN1C(=O)CCC1=O	5
O=C1c2ccc(Oc3ccc(Cl)cc3)cc2C(=O)N1Cc1cccnc1	5
CCOC(=O)OCCOc1cc(O)c2c(c1N)C(=O)c1ccccc1C2=O	5
NCCNS(=O)(=O)c1cccc2cnccc12	4
CC(C)=CCC(C#N)(CCN1CCCCC1)c1cccc2ccccc12 (stereo not drawn)	4
CC12C=CC(=O)C=C1CCC1C2CCC2(C)C(O)CCC12 (stereo not drawn)	5
CC(C)=CCC[C@@](C)(O)[C@H]1CC=C(C)CC1	5
CCOC(=O)C(C)OC(=O)c1cc(Oc2ccc(C(F)(F)F)cc2Cl)ccc1[N+](=O)[O-] (stereo not drawn)	5
CCCc1c(Cc2ccc(-c3ccccc3-c3nn[nH]n3)cc2)c(N(CC)CC)nc2ncnn12	4
CCCCCCCOCC(COCCCCCCC)(COCCCCCCC)COCCCCCCC	5
Nc1cnn(CCO)c1N	5
C=CCC(C)C	5
FC(F)(Cl)C(Cl)(Cl)Cl	5
O=C1C[N+]([O-])=C(c2ccccc2)c2cc(Cl)ccc2N1	5
CCC(CC)CC1(C(=O)O)CCCCC1	4
CC1=CC(=O)N(Cc2cccc(CN3C(=O)C=C(C)C3=O)c2)C1=O	5
O=c1[nH]c(=O)n(C2OC(CO)C(O)C2O)cc1C=CBr (stereo not drawn)	5
